Assay results taken from patent US7696165B2 (Albany Molecular Research, Inc., priority 2006, dated 2010).
Values after ≈ are worked out from the molar mass of the structure shown.

Tested on: concanavalin A (ConA)-stimulated murine splenocytes
Experiment: Concanavalin A-stimulated murine splenocyte assay ([3H]thymidine incorporation)
Format: cell-based, mouse (BALB/c)
Protocol: Male BALB/c mice, at 5 to 7 weeks of age, were sacrificed by CO2 inhalation. Spleens were removed and dissociated by pushing through a nylon cell strainer. The splenocytes were washed in RPMI 1640/5% fetal calf serum (FCS) and pelleted at 400×g. Red blood cells were then lysed by resuspending the cell pellet in ACK lysis buffer (150 mM NH4Cl, 1 mM KHCO3, 0.1 mM EDTA, 3 mL per spleen) for 10 min at room temperature. After pelleting at 400×g, the cells were washed by resuspending in RPMI 1640/5% FCS and repelleting. The cell pellet was resuspended in RPMI 1640/5% FCS and again passed through a cell strainer to remove cell aggregates. The cells were then counted and adjusted to 2×10^6 cells/ml in RPMI 1640/10% FCS/50 μM 2-mercaptoethanol. Cell viability was assessed by Trypan blue staining. […] The cells were cultured in a 37° C. CO2 incubator for 2 days and then pulsed with 1 μCi of [^3H]thymidine for 6 hours. Cells were harvested onto filtermats with a TomTec 96 well plate harvester and lysed with H2O. The filtermat and scintillation fluid were sealed in a plastic sleeve. [^3H]thymidine incorporation was measured with a Wallac Trilux plate counter. Initial screens were done at a fixed value of 100 ng/ml test compound. IC50s were calculated from 7 point concentration-response curves using graphPad software.

Compound	IC50 [µg/mL]	immunosuppressive potency compared to cyclosporin A (FIG. 1, ConA stimulated murine splenocyte assay)
C/C=C\C#CC[C@@H](C)[C@@H](O)[C@H]1C(=O)N[C@@H](CC)C(=O)N(C)CC(=O)N(C)[C@@H](CC(C)C)C(=O)N[C@@H](C(C)C)C(=O)N(C)[C@@H](CC(C)C)C(=O)N[C@@H](C)C(=O)N[C@H](C)C(=O)N(C)[C@@H](CC(C)C)C(=O)N(C)[C@@H](CC(C)C)C(=O)N(C)[C@@H](C(C)C)C(=O)N1C [Example 14, cis-cyclosporin yne-ene]	0.032 (≈ 0.0261 µM)	
C#CC#CC[C@@H](C)[C@@H](O)[C@H]1C(=O)N[C@@H](CC)C(=O)N(C)CC(=O)N(C)[C@@H](CC(C)C)C(=O)N[C@@H](C(C)C)C(=O)N(C)[C@@H](CC(C)C)C(=O)N[C@@H](C)C(=O)N[C@H](C)C(=O)N(C)[C@@H](CC(C)C)C(=O)N(C)[C@@H](CC(C)C)C(=O)N(C)[C@@H](C(C)C)C(=O)N1C [Example 25, cyclosporine diyne]	0.012 (≈ 0.00991 µM)	two times more potent over cyclosporin A
CC#CC#CC[C@@H](C)[C@@H](O)[C@H]1C(=O)N[C@@H](CC)C(=O)N(C)CC(=O)N(C)[C@@H](CC(C)C)C(=O)N[C@@H](C(C)C)C(=O)N(C)[C@@H](CC(C)C)C(=O)N[C@@H](C)C(=O)N[C@H](C)C(=O)N(C)[C@@H](CC(C)C)C(=O)N(C)[C@@H](CC(C)C)C(=O)N(C)[C@@H](C(C)C)C(=O)N1C [Example 27, cyclosporin diyne]	0.012 (≈ 0.0098 µM)	
C/C=C\C#CC#CC[C@@H](C)[C@@H](O)[C@H]1C(=O)N[C@@H](CC)C(=O)N(C)CC(=O)N(C)[C@@H](CC(C)C)C(=O)N[C@@H](C(C)C)C(=O)N(C)[C@@H](CC(C)C)C(=O)N[C@@H](C)C(=O)N[C@H](C)C(=O)N(C)[C@@H](CC(C)C)C(=O)N(C)[C@@H](CC(C)C)C(=O)N(C)[C@@H](C(C)C)C(=O)N1C [Example 35, cis-cyclosporin yne-yne-ene]	0.077 (≈ 0.0616 µM)	
